Test results taken from PMC4454674, “Functional Coupling of Duplex Translocation to DNA Cleavage in a Type I Restriction Enzyme” (PLoS ONE, 2015).

Target: T1, EcoR124I (HsdR reconstituted with HsdS-HsdM2 methylase) (Escherichia coli, UniProt P10486)
T1 construct: holoenzyme reconstituted from purified HsdR (pTrcR124) and EcoR124I methylase HsdS-HsdM2 (pJS4M, JM109(DE3)), on plasmid DNA with one site; with Type I restriction enzyme EcoR124I/EcoR124II methylase subunit; Type I restriction enzyme EcoR124I specificity subunit
T1 sequence (P10486 1-1038): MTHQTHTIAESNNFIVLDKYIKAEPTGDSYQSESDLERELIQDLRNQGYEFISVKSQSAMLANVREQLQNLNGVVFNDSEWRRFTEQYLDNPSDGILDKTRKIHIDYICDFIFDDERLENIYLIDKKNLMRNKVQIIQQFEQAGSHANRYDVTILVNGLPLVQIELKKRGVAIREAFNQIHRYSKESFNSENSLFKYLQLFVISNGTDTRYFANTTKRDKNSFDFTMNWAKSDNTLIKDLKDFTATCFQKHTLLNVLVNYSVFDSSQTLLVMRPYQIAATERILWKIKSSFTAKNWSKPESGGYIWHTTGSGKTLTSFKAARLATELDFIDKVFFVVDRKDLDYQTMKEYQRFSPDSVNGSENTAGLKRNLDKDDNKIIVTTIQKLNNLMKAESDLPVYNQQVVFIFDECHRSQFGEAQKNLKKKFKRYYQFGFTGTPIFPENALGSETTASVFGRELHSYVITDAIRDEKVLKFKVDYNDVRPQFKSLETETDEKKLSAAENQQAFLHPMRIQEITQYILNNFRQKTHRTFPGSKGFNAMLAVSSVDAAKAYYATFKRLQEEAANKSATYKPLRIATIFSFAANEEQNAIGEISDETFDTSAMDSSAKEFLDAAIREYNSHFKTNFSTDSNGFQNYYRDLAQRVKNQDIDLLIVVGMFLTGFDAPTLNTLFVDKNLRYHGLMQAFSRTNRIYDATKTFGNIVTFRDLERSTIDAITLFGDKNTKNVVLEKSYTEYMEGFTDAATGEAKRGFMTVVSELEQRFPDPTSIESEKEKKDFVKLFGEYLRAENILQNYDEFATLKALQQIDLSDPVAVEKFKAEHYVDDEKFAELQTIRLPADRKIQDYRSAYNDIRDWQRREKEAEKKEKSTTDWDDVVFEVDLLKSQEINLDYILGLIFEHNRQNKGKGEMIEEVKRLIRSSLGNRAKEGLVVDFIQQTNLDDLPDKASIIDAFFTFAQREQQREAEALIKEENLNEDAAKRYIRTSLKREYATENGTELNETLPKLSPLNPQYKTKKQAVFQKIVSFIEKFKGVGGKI
T1 sequence (P10485 1-404 partner): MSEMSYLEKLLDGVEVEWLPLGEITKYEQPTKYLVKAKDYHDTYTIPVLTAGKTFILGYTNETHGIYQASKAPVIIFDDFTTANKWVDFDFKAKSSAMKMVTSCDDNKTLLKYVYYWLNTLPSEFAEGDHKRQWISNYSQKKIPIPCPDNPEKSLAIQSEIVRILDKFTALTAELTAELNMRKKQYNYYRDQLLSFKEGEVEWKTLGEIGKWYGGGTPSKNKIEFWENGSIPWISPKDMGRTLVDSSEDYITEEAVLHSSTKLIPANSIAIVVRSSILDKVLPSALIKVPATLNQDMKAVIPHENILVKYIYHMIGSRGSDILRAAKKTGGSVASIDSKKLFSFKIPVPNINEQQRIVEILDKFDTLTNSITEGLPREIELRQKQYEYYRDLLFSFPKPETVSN
T1 sequence (P10484 1-520 partner): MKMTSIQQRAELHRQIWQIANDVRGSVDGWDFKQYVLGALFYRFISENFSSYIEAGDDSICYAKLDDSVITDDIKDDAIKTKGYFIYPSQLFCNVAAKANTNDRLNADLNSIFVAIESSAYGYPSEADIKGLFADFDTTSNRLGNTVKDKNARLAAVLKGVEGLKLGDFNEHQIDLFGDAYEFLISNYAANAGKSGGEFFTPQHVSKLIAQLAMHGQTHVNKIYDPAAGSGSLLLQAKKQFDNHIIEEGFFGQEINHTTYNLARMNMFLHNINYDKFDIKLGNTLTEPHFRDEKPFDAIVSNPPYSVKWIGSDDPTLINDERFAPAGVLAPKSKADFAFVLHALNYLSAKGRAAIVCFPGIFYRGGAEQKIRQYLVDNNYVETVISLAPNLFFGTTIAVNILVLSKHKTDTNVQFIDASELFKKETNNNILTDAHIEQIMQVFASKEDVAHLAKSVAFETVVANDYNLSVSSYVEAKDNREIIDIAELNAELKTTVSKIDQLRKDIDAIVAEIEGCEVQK
Assay: DNA-dependent ATPase, gamma-32P-ATP with TLC
Type: biochemical
Conditions: 2 mM ATP; 15 nM methylase, 90 nM HsdR, 90 nM plasmid DNA; 10 mM MgCl2; pH 7.9; 37 C; turnover only; gamma-32P-ATP tracer

Nc1ncnc2c1ncn2[C@@H]1O[C@H](COP(=O)(O)OP(=O)(O)OP(=O)(O)O)[C@@H](O)[C@H]1O [ATP]
DNA-dependent ATPase, gamma-32P-ATP with TLC: The results for the WT enzyme reproduce its previously reported ATPase activity
